In experiment [1] the target is T1, VhChiP (chitooligosaccharide-specific porin, chitoporin) (Vibrio harveyi, UniProt L0RVU0).
T1 sequence (L0RVU0 26-375): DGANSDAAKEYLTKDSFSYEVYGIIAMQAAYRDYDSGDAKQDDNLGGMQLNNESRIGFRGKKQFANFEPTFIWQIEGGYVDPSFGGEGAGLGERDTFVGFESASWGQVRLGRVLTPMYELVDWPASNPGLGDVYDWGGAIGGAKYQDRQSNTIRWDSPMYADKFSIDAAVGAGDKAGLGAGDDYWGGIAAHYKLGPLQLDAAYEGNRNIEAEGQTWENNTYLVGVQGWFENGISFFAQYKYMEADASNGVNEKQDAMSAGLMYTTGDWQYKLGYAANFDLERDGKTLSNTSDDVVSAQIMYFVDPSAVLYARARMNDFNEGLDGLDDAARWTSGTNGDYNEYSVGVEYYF
Kind of experiment: biochemical. As to conditions: read-out: WT ΔTm (fluorescence).

Experiment [2] addresses T1, VhChiP (chitooligosaccharide-specific porin, chitoporin). Briefly: intrinsic tryptophan fluorescence titration. The conditions noted are these: 20 mM phosphate pH 7.4, 0.2% LDAO, 25 °C; one-site fit. In kind it is binding.
For experiment [3] the target is unchanged. Briefly: biochemical. As to conditions: read-out: WT ΔTm (CD).

The text below walks through data of publication doi:10.1101/2020.06.24.169508v1 (biorxiv, 2020).

Take `CC(=O)N[C@H]1[C@H](O[C@H]2[C@H](O)[C@@H](NC(C)=O)[C@H](O[C@H]3[C@H](O)[C@@H](NC(C)=O)C(O)O[C@@H]3CO)O[C@@H]2CO)O[C@H](CO)[C@@H](O[C@@H]2O[C@H](CO)[C@@H](O[C@@H]3O[C@H](CO)[C@@H](O)[C@H](O)[C@H]3NC(C)=O)[C@H](O)[C@H]2NC(C)=O)[C@@H]1O` (stereo partly shown) [Chitopentaose]: the ΔTm at 1000 µM in experiment [1] worked out at 6 °C. The K in experiment [2] was 3.8 ± 0.2 ×10^5 M^-1. Also, in experiment [3], the ΔTm at 100 µM is 5.7 °C.

In the case of `CC(=O)N[C@H]1[C@H](O[C@H]2[C@H](O)[C@@H](NC(C)=O)C(O)O[C@@H]2CO)O[C@H](CO)[C@@H](O[C@@H]2O[C@H](CO)[C@@H](O)[C@H](O)[C@H]2NC(C)=O)[C@@H]1O` (stereo partly shown) [Chitotriose], the ΔTm at 1000 µM in experiment [1] was found to be 4 °C. In addition, the K in experiment [2] was 0.5 ± 0.03 ×10^5 M^-1. For the same molecule, the ΔTm at 100 µM in experiment [3] was found to be 3.2 °C.

Regarding `CC(=O)N[C@H]1[C@H](O[C@H]2[C@H](O)[C@@H](NC(C)=O)C(O)O[C@@H]2CO)O[C@H](CO)[C@@H](O[C@@H]2O[C@H](CO)[C@@H](O[C@@H]3O[C@H](CO)[C@@H](O)[C@H](O)[C@H]3NC(C)=O)[C@H](O)[C@H]2NC(C)=O)[C@@H]1O` (stereo partly shown) [Chitotetraose], in experiment [1], the ΔTm at 1000 µM amounted to 5 °C. Besides, the K in experiment [2] was 1.4 ± 0.01 ×10^5 M^-1. Also, the ΔTm at 100 µM in experiment [3] was determined as 3.8 °C.

As to `CC(=O)N[C@H]1C(O)O[C@H](CO)[C@@H](O)[C@@H]1O` (stereo partly drawn) [D-GlcNAc], the ΔTm at 1000 µM in experiment [1] was 2 °C.

On to `CC(=O)N[C@H]1[C@H](O[C@H]2[C@H](O)[C@@H](NC(C)=O)C(O)O[C@@H]2CO)O[C@H](CO)[C@@H](O)[C@@H]1O` (stereo partly shown) [Chitobiose], for which, in experiment [1], the ΔTm at 1000 µM turned out to be 4 °C. The K in experiment [2] was 0.1 ± 0.04 ×10^5 M^-1. In addition, in experiment [3], the ΔTm at 100 µM amounted to 2.1 °C.

Turning to `CC(=O)N[C@H]1[C@H](O[C@H]2[C@H](O)[C@@H](NC(C)=O)[C@H](O[C@H]3[C@H](O)[C@@H](NC(C)=O)C(O)O[C@@H]3CO)O[C@@H]2CO)O[C@H](CO)[C@@H](O[C@@H]2O[C@H](CO)[C@@H](O[C@@H]3O[C@H](CO)[C@@H](O[C@@H]4O[C@H](CO)[C@@H](O)[C@H](O)[C@H]4NC(C)=O)[C@H](O)[C@H]3NC(C)=O)[C@H](O)[C@H]2NC(C)=O)[C@@H]1O` (stereo partly shown) [Chitohexaose], the ΔTm at 1000 µM in experiment [1] worked out at 8 °C. The K in experiment [2] was 13 ± 0.5 ×10^5 M^-1. The ΔTm at 100 µM in experiment [3] stood at 7 °C.

What is called ΔTm is the shift of the melting midpoint relative to a reference.
